Measurements as given in patent US9113629B2, “4-amino-6-(4-substituted-phenyl)-picolinates and 6-amino-2-(4-substituted-phenyl)-pyrimidine-4-carboxylates and their use as herbicides” (DOW AGROSCIENCES LLC, priority 2013, dated 2015).

Key:
[1] = tested on: APESV; assay: Pre-emergent Test III, preemergent activity in wheat and barley; assay type: in vivo, Apera spica-venti
Experimental: (§1) Pre-emergent Test III. Seeds of test species were planted into square plastic pots (10 cm wide) containing sandy loam soil. After planting, all pots were sub-irrigated 16 h prior to compound application. A weighed amount, determined by the highest rate to be tested, of each test compound was placed in a 25 mL glass vial and was dissolved in 4 mL of a 97:3 v/v mixture of acetone and DMSO to obtain concentrated stock solutions. […] The concentrated stock solutions obtained were diluted with 20 mL of an aqueous mixture containing water and 0.02% w/v (weight/volume) of Triton X-155 to obtain spray solutions containing the highest application rates. Additional application rates were obtained by serial dilution of 12 mL of the high rate solution into a solution containing 2 mL of 97:3 v/v mixture of acetone and DMSO and 10 mL of an aqueous mixture containing water and 0.02% w/v (weight/volume) of Triton X-155 to obtain 1⁄2×, 1⁄4×, 1⁄8× and 1/16× rates of the high rate. Compound requirements are based upon a 12 mL application volume at a rate of 187 liters per hectare (L/ha). Formulated compounds were applied to the soil surface with an overhead Mandel track sprayer equipped with […] nozzles calibrated to deliver 187 L/ha over an application area of 0.503 square meters. Control pots were sprayed in the same manner with the solvent blank. The treated pots and control pots were placed in a greenhouse as described above and watered through surface irrigation. After 21 d, the condition of the test pots as compared with that of the untreated pots was determined visually and scored on a scale of 0 to 100 percent where 0 corresponds to no herbicidal effect and 100 corresponds to plant death or lack of emergence from the soil. By applying the well-accepted probit analysis as described by J. Berkson in Journal of the American Statistical Society, 48, 565 (1953) and by D. Finney in “Probit Analysis” Cambridge University Press (1952), the above data can be used to calculate GR20, GR50, GR80 and GR90 values, which are defined as growth reduction factors that correspond to the effective dose of herbicide required to kill or control 20 percent, 50 percent, 80 percent or 90 percent, respectively, of a target plant.

[2] = tested on: LOLSS; assay: as above; assay type: in vivo, Lolium multiflorum, Lolium rigidum
Experimental: as §1

[3] = tested on: SETVI; assay: as above; assay type: in vivo, Setaria viridis
Experimental: as §1

[4] = tested on: TRZSS; assay: as above; assay type: in vivo, Triticum aestivum
Experimental: as §1

[5] = tested on: ALOMY: black-grass (Alopecurus myosuroides); assay: Post-emergent Test III, herbicidal activity in wheat and barley; assay type: in vivo; settings: for pest or weed control at 35 g/ha: 35 g ai/ha; for pest or weed control at 70 g/ha: 70 g ai/ha; for GR50 ALOMY / GR80 ALOMY: probit analysis, 21 days after application; for GR50 ALOMY: dose for growth reduction of 50 percent; for GR80 ALOMY: dose for growth reduction of 80 percent
Procedure, shortened: (§2)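 Plants at the second to third true-leaf stage, grown in a greenhouse at about 18/17 °C with a 14 h photoperiod, were sprayed post-emergence at 187 L/ha with the high rate and ½× to 1/16× serial dilutions in an acetone/DMSO/crop-oil/surfactant carrier. Injury was rated visually at 21 d on a 0–100% scale, and GR20–GR90 were derived by probit analysis.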

[6] = tested on: LAMSS; assay: as above; assay type: in vivo; settings: for pest or weed control at 35 g/ha: 35 g ai/ha; for pest or weed control at 70 g/ha: 70 g ai/ha; for GR50 LAMSS / GR80 LAMSS: probit analysis, 21 days after application; for GR50 LAMSS: dose for growth reduction of 50 percent; for GR80 LAMSS: dose for growth reduction of 80 percent
Procedure, shortened: as §2

[7] = 21 days after application, dose to kill or control 50%, probit analysis
[8] = 21 days after application, dose to kill or control 80%, probit analysis
[9] = Alopecurus myosuroides, post-emergence, 504 h, read-out: Visual Growth Reduction (%) 21 Days After Application ALOMY
[10] = post-emergence, 504 h, read-out: Visual Growth Reduction (%) 21 Days After Application LAMSS

COC(=O)c1nc(-c2ccc(Br)c(F)c2)c(F)c(N)c1Cl [Compound 49]
Visual Growth Reduction (%) 21 Days After Application, APESV ([1]; 35 g ai/ha): F (30-44) | Visual Growth Reduction (%) 21 Days After Application, APESV ([1]; 70 g ai/ha): E (45-59) | GR50 APESV [1, 7]: >70 g ai/ha | GR80 APESV [1, 8]: >70 g ai/ha | Visual Growth Reduction (%) 21 Days After Application, LOLSS ([2]; 35 g ai/ha): G (0-29) | Visual Growth Reduction (%) 21 Days After Application, LOLSS ([2]; 70 g ai/ha): G (0-29) | GR50 LOLSS [2, 7]: >70 g ai/ha | GR80 LOLSS [2, 8]: >70 g ai/ha | Visual Growth Reduction (%) 21 Days After Application, SETVI ([3]; 35 g ai/ha): F (30-44) | Visual Growth Reduction (%) 21 Days After Application, SETVI ([3]; 70 g ai/ha): F (30-44) | GR50 SETVI [3, 7]: >70 g ai/ha | GR80 SETVI [3, 8]: >70 g ai/ha | Visual Growth Reduction (%) 21 Days After Application, TRZSS ([4]; 35 g ai/ha): G (0-29) | Visual Growth Reduction (%) 21 Days After Application, TRZSS ([4]; 70 g ai/ha): G (0-29) | GR20 TRZSS ([4]; 21 days after application, dose to kill or control 20%, probit analysis): >70 g ai/ha

Nc1c(F)c(-c2ccc(C(F)(F)F)c(F)c2F)nc(C(=O)O)c1Cl [Compound 167]
pest or weed control at 35 g/ha [5, 9]: 30 to 44% | pest or weed control at 70 g/ha [5, 9]: 60 to 74% | GR50 ALOMY [5]: 57 g ai/ha | GR80 ALOMY [5]: 119 g ai/ha | pest or weed control at 35 g/ha [6, 10]: 95 to 100% | pest or weed control at 70 g/ha [6, 10]: 95 to 100% | GR50 LAMSS [6]: 1 g ai/ha | GR80 LAMSS [6]: 1 g ai/ha

COC(=O)c1nc(-c2ccc(Cl)c(F)c2)c(F)c(N)c1Cl [Compound 216]
pest or weed control at 35 g/ha [5, 9]: 45 to 59% | pest or weed control at 70 g/ha [5, 9]: 60 to 74% | pest or weed control at 140 g/ha ([5]; Alopecurus myosuroides, post-emergence, 504 h, 140 g ai/ha, read-out: Visual Growth Reduction (%) 21 Days After Application ALOMY): 75 to 84% | GR50 ALOMY [5]: 54 g ai/ha | GR80 ALOMY [5]: >140 g ai/ha | pest or weed control at 35 g/ha [6, 10]: 95 to 100% | pest or weed control at 70 g/ha [6, 10]: 95 to 100% | pest or weed control at 140 g/ha ([6]; post-emergence, 504 h, 140 g ai/ha, read-out: Visual Growth Reduction (%) 21 Days After Application LAMSS): 95 to 100% | GR50 LAMSS [6]: 1 g ai/ha | GR80 LAMSS [6]: 1 g ai/ha
